From patent US20230131025A1, “QUINOLYL PHOSPHINE OXIDE COMPOUND, AND COMPOSITION AND APPLICATION THEREOF” (Betta Pharmaceuticals Co., Ltd., priority 2020, published 2023) come the findings set out here.

Common to all, as to test: Cell proliferation experiment (CellTiter Glo, 72 hours)
What all share (format): cell-based
(In general: ATP-based viability assays read luminescence as a measure of living cells.)

Experiment [1] deals with human epidermal cancer cells A431 carrying EGFR WT. The conditions noted are these: Homo sapiens, A-431. The protocol: (§1) Experiment 2 Cell Proliferation Experiment
Adherent cells: human epidermal cancer cells A431 carrying EGFR WT.
(§2) RPMI 1640 with 10% FBS and 1% Penicillin-Streptomycin, or DMEM with 10% FBS and 1% Penicillin-Streptomycin.
(§3) a) Diluting compounds being tested (20 mM stock solutions), as an initial concentration, to 10 mM with 100% DMSO, followed by diluting compounds serially in a 3-fold gradient such that each compound is diluted into 12 concentrations (Cat #P-05525, Labcyte).
(§4) b) Diluting the above compound solutions for 100-fold with culture medium to prepare 10-fold working solution.
(§5) b) Seeding cells into 96-well cell culture plate at a density of 2000 or 3000 cells/well, with 135 μL/well.
(§6) a) Adding the compound prepared in step 2 to the cell plate at 15 μL per well, resulting in a final maximum concentration of 10000 nM or 1111 nM. The compounds is diluted serially in a 3-fold gradient such that each compound is diluted into 9 concentrations, wherein the final concentration of DMSO is 0.1%. Blank control wells are added with medium (0.1% DMSO).
(§7) b) Re-incubating the cells in an incubator for 72 hours. 5. Detection
(§8) a) Adding 50 μL of CTG reagent (CellTiter Glo kit, promega, Cat #G7573) to the 96-well cell culture plate.
(§9) b) Shaking the plate for 2 minutes and reacting at room temperature for 10 minutes.
(§10) c) Reading the luminescence signal value (Lum) using PerkinElmer reader.
(§11) The cell survival inhibition rate of each well was calculated. The data was analyzed by GraphPad Prism 6.0 software. The dose-response curve was obtained by fitting the data with a nonlinear regression equation. The IC50 of each compound was calculated as follows:
(§12) Cell survival inhibition rate (%)=(1−(Lumcompound tested−Lummedium control)/(Lumcell control−Lummedium control))×100%
(§13) Y=Min+(Max−Min)/(1+10^((Log IC50−X)*Slope));
(§14) X: logarithm of compound concentration. Y: cell survival inhibition rate.

Another experiment deals with Ba/F3 EGFR WT (Homo sapiens, UniProt P00533). To be noted: read-out: BaF3 EGFR WT IC50. The protocol:
as §1
(§15) Suspension cells: Ba/F3 cells with stable overexpression of Δ19del/T790M/C797S mutant gene, named Ba/F3-Δ19del/T790M/C797S; Ba/F3 cells with overexpression of EGFR WT, named Ba/F3 EGFR WT.
as §2, §3, §4, §5, §6, §7, §8, §9, §10, §11, §12, §13, §14

A further experiment has as its target Ba/F3-Δ19del/T790M/C797S (Homo sapiens, UniProt P00533, T790M/C797S, cells depend on it, form not given). The conditions noted are these: read-out: Ba/F3/EGFR Δ19del/T790M/C797S IC50. The protocol: as §1, §15, §2, §3, §4, §5, §6, §7, §8, §9, §10, §11, §12, §13, §14

Each structure is given as a SMILES string.

Ba/F3-Δ19del/T790M/C797S, sequence (P00533 with tags, fused parts or gaps DEL746-750/T790M/C797S, form open): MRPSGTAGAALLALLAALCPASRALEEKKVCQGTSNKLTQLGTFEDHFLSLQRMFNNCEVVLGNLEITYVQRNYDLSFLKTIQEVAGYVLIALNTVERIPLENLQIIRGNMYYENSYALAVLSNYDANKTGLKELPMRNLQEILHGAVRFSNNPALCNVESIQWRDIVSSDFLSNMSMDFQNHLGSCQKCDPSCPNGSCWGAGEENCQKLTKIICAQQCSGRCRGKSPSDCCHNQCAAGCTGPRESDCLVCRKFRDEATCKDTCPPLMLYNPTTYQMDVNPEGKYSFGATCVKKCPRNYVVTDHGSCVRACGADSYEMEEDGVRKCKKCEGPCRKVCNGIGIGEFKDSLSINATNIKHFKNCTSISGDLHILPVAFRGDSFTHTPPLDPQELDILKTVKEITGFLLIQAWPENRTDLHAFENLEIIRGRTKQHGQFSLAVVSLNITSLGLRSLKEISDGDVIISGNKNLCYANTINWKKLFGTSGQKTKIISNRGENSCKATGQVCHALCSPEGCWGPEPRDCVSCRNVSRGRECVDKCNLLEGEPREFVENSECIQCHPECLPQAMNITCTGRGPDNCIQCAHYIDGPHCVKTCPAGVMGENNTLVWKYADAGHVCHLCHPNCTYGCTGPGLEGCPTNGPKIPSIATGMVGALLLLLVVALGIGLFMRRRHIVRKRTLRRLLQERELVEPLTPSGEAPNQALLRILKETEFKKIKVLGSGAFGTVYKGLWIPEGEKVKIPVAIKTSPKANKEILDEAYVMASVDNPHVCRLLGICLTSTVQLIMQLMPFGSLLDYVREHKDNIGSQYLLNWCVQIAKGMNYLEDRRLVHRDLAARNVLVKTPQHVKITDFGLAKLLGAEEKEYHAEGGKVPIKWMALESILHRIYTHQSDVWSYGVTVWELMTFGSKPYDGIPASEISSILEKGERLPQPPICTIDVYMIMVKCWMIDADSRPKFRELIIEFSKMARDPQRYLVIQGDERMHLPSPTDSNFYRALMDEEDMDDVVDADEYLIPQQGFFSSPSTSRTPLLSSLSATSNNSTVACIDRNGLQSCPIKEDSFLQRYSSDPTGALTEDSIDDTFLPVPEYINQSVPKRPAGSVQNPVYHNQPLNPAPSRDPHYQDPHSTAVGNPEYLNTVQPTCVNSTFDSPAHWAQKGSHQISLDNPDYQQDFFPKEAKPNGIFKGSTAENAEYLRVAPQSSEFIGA
Ba/F3 EGFR WT, sequence (P00533 whole entry, change not shown): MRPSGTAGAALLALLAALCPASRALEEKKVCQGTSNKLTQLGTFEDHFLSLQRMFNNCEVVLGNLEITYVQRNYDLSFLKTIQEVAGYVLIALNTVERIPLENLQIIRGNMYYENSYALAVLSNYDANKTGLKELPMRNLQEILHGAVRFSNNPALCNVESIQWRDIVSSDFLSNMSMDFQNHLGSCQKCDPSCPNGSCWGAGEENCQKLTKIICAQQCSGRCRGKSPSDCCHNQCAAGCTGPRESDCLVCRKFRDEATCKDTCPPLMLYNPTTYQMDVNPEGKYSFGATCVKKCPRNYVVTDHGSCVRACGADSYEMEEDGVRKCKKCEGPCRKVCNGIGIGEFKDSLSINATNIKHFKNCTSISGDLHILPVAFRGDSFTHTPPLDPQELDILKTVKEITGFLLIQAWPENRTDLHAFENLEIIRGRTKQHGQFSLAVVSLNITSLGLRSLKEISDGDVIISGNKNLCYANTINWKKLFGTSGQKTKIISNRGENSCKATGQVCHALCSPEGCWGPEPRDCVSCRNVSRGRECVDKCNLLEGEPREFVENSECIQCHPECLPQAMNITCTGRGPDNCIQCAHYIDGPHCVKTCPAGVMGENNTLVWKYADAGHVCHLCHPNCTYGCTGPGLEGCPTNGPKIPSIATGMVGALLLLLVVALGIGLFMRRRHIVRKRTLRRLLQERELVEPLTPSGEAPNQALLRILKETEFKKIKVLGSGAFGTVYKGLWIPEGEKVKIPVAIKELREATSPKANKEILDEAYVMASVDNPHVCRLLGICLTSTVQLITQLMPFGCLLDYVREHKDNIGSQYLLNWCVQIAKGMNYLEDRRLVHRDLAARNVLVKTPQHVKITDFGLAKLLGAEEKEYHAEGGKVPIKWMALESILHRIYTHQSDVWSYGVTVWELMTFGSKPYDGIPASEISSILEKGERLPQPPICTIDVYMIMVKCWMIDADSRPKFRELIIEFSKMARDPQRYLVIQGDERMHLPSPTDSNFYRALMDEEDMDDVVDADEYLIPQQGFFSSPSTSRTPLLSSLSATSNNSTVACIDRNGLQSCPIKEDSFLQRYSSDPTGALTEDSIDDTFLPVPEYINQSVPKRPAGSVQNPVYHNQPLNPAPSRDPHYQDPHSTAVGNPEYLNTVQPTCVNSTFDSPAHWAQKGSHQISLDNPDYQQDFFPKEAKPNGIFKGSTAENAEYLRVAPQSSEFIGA

Take `COc1cc(Nc2ncc(Br)c(Nc3ccc4nc(C5CC5)ccc4c3P(C)(C)=O)n2)c(C)cc1N1CCC(OC)CC1` [Compound J-033, (6-((5-Bromo-2-((5-methoxy-4-(4-methoxypiperidin-1-yl)-2-methylphenyl)amino)pyrimidin-4-yl)amino)-2-cyclopropylquinolin-5-yl)dimethylphosphine oxide]: in experiment [1], the IC50 is greater than 10000 nM. The results for the GI50 on Ba/F3 EGFR WT and on Ba/F3-Δ19del/T790M/C797S were 611 nM and 12.9 nM, respectively.
The matching figures for `COc1cc(N2CCN(c3cc(OC)c(Nc4ncc(Br)c(Nc5ccc6nc(C7CC7)ccc6c5P(C)(C)=O)n4)cc3-c3cnn(C)c3)CC2)ccn1` [Compound J-043]: 896 nM, 67.6 nM and 10.9 nM.
The matching figures for `COc1ncc(N2CCN(c3cc(OC)c(Nc4ncc(Br)c(Nc5ccc6nc(C7CC7)ccc6c5P(C)(C)=O)n4)cc3-c3cnn(C)c3)CC2)cn1` [Compound J-044, (6-((5-Bromo-2-((2-methoxy-4-(4-(2-methoxypyrimidin-5-yl)piperazin-1-yl)-5-(1-methyl-1H-pyrazol-4-yl)phenyl)amino)pyrimidin-4-yl)amino)-2-cyclopropylquinolin-5-yl)dimethylphosphine oxide]: 432 nM, 25.2 nM and 1 nM.
The matching figures for `COc1cc(N2CCN(c3cnc(N(C)C)cn3)CC2)c(-c2cnn(C)c2)cc1Nc1ncc(Br)c(Nc2ccc3nc(C4CC4)ccc3c2P(C)(C)=O)n1` [Compound J-045, (6-((5-Bromo-2-((4-(4-(5-(dimethylamino)pyrazin-2-yl)piperazin-1-yl)-2-methoxy-5-(1-methyl-1H-pyrazol-4-yl)phenyl)amino)pyrimidin-4-yl)amino)-2-cyclopropylquinolin-5-yl)dimethylphosphine oxide]: 710 nM, 130 nM and 13.5 nM.
In experiment [1], `COc1cc(N2CCC(N3CCN(C)CC3)CC2)c(-c2cnn(C)n2)cc1Nc1ncc(Br)c(Nc2ccc3nc(C4CC4)ccc3c2P(C)(C)=O)n1` [Compound J-046, (6-((5-Bromo-2-((2-methoxy-5-(2-methyl-2H-1,2,3-triazol-4-yl)-4-(4-(4-methylpiperazin-1-yl)piperidin-1-yl)phenyl)amino)pyrimidin-4-yl)amino)-2-cyclopropylquinolin-5-yl)dimethylphosphine oxide] yielded an IC50 of 475 nM. Also, the GI50 on Ba/F3 EGFR WT was 117 nM; on Ba/F3-Δ19del/T790M/C797S, 1.2 nM.
The matching figures for `COc1cc(N2CCN(c3ccncc3)CC2)c(-c2cnn(C)n2)cc1Nc1ncc(Br)c(Nc2ccc3nc(C4CC4)ccc3c2P(C)(C)=O)n1` [Compound J-047, (6-((5-Bromo-2-((2-methoxy-5-(2-methyl-2H-1,2,3-triazol-4-yl)-4-(4-(pyridin-4-yl)piperazin-1-yl)phenyl)amino)pyrimidin-4-yl)amino)-2-cyclopropylquinolin-5-yl)dimethylphosphine oxide]: 176 nM, 21 nM and 0.5 nM.
The matching figures for `COc1cc(N2CCN(c3nccs3)CC2)c(-c2cnn(C)c2)cc1Nc1ncc(Br)c(Nc2ccc3nc(C4CC4)ccc3c2P(C)(C)=O)n1` [Compound J-048, (6-((5-Bromo-2-((2-methoxy-5-(1-methyl-1H-pyrazol-4-yl)-4-(4-(thiazol-2-yl)piperazin-1-yl)phenyl)amino)pyrimidin-4-yl)amino)-2-cyclopropylquinolin-5-yl)dimethylphosphine oxide]: 1100 nM, 52 nM and 7.6 nM.
The matching figures for `COc1cncc(N2CCN(c3cc(OC)c(Nc4ncc(Br)c(Nc5ccc6nc(C7CC7)ccc6c5P(C)(C)=O)n4)cc3-c3cnn(C)c3)CC2)n1` [Compound J-049, (6-((5-Bromo-2-((2-methoxy-4-(4-(6-methoxypyrazin-2-yl)piperazin-1-yl)-5-(1-methyl-1H-pyrazol-4-yl)phenyl)amino)pyrimidin-4-yl)amino)-2-cyclopropylquinolin-5-yl)dimethylphosphine oxide]: 2300 nM, 109 nM and 8.5 nM.
Turning to `COc1cc(N2CCN(c3cccc(=O)n3C)CC2)c(-c2cnn(C)c2)cc1Nc1ncc(Br)c(Nc2ccc3nc(C4CC4)ccc3c2P(C)(C)=O)n1` [Compound J-050, 6-(4-(4-((5-Bromo-4-((2-cyclopropyl-5-(dimethylphosphoryl)quinolin-6-yl)amino)pyrimidin-2-yl)amino)-5-methoxy-2-(1-methyl-1H-pyrazol-4-yl)phenyl)piperazin-1-yl)-1-methylpyridin-2(1H)-one], it took 861 nM to reach half-maximal inhibition in experiment [1] (IC50). The figures for the GI50 at Ba/F3 EGFR WT and on Ba/F3-Δ19del/T790M/C797S were 42.2 nM and 1.8 nM, respectively.
The matching figures for `COc1cc(NCC2CCN(C)CC2)c(-c2cnn(C)c2)cc1Nc1ncc(Br)c(Nc2ccc3nc(C4CC4)ccc3c2P(C)(C)=O)n1` [Compound J-052]: 279 nM, 123 nM and 2.6 nM.
The matching figures for `COc1cc(NCC2CCOCC2)c(-c2cnn(C)c2)cc1Nc1ncc(Br)c(Nc2ccc3nc(C4CC4)ccc3c2P(C)(C)=O)n1` [Compound J-053, (6-((5-Bromo-2-((2-methoxy-5-(1-methyl-1H-pyrazol-4-yl)-4-(((tetrahydro-2H-pyran-4-yl)methyl)amino)phenyl)amino)pyrimidin-4-yl)amino)-2-cyclopropylquinolin-5-yl)dimethylphosphine oxide]: 753 nM, 54 nM and 3.9 nM.
The matching figures for `COc1cc(N2CCN(C)CC2)c(-c2cnn(C)c2)cc1Nc1ncc(Br)c(Nc2ccc3nc(C4CC4)ccc3c2P(C)(C)=O)n1` [Compound J-054, (6-((5-Bromo-2-((2-methoxy-5-(1-methyl-1H-pyrazol-4-yl)-4-(4-methylpiperazin-1-yl)phenyl)amino)pyrimidin-4-yl)amino)-2-cyclopropylquinolin-5-yl)dimethylphosphine oxide]: 143 nM, 15.8 nM and 0.8 nM.
With `COc1cc(N2CCN(C3CCCC3)CC2)c(-c2cnn(C)c2)cc1Nc1ncc(Br)c(Nc2ccc3nc(C4CC4)ccc3c2P(C)(C)=O)n1` [Compound J-055, (6-((5-Bromo-2-((4-(4-cyclopentylpiperazin-1-yl)-2-methoxy-5-(1-methyl-1H-pyrazol-4-yl)phenyl)amino)pyrimidin-4-yl)amino)-2-cyclopropylquinolin-5-yl)dimethylphosphine oxide], the GI50 at Ba/F3 EGFR WT is 79 nM; at Ba/F3-Δ19del/T790M/C797S, 12.4 nM.
Take `COc1cc(N2CCN(c3cccnc3)CC2)c(-c2cnn(C)c2)cc1Nc1ncc(Br)c(Nc2ccc3nc(C4CC4)ccc3c2P(C)(C)=O)n1` [Compound J-056, (6-((5-Bromo-2-((2-methoxy-5-(1-methyl-1H-pyrazol-4-yl)-4-(4-(pyridin-3-yl)piperazin-1-yl)phenyl)amino)pyrimidin-4-yl)amino)-2-cyclopropylquinolin-5-yl)dimethylphosphine oxide]: the IC50 in experiment [1] is 1100 nM. For the same compound, the GI50 on Ba/F3 EGFR WT turned out to be 38 nM; at Ba/F3-Δ19del/T790M/C797S, 0.8 nM.
In the case of `COc1cc(N2CCN(c3ccncc3)CC2)c(-c2cnn(C)c2)cc1Nc1ncc(Br)c(Nc2ccc3nc(C4CC4)ccc3c2P(C)(C)=O)n1` [Compound J-057, (6-((5-Bromo-2-((2-methoxy-5-(1-methyl-1H-pyrazol-4-yl)-4-(4-(pyridin-4-yl)piperazin-1-yl)phenyl)amino)pyrimidin-4-yl)amino)-2-cyclopropylquinolin-5-yl)dimethylphosphine oxide], the IC50 in experiment [1] is 328 nM. In addition, the figures for the GI50 at Ba/F3 EGFR WT and at Ba/F3-Δ19del/T790M/C797S were 54 nM and 3 nM, respectively.
The matching figures for `COc1cc(N2CCN(c3cnccn3)CC2)c(-c2cnn(C)c2)cc1Nc1ncc(Br)c(Nc2ccc3nc(C4CC4)ccc3c2P(C)(C)=O)n1` [Compound J-058, (6-((5-Bromo-2-((2-methoxy-5-(1-methyl-1H-pyrazol-4-yl)-4-(4-(pyrazin-2-yl)piperazin-1-yl)phenyl)amino)pyrimidin-4-yl)amino)-2-cyclopropylquinolin-5-yl)dimethylphosphine oxide]: 649 nM, 117 nM and 5.8 nM.

For orientation: IC50 means the concentration that inhibits the measured activity by half.
